Tests used:
Mythimna separata = assay: Test Example 1: efficacy test on Mythimna separata (artificial diet); assay type: in vivo; settings: 0.8 g artificial diet mixed with 1 μl emulsion (I) (5% active ingredient); second instar larvae; 25° C.; fifth day
Procedure: (§1) 5 parts of the compound of the present invention, 93.6 parts of dimethylformamide, and 1.4 parts of polyoxyethylene alkylaryl ether were mixed and dissolved to prepare an emulsion (I) with 5% the active ingredient.
(§2) The insecticidal rate and the control rate were calculated by the following Equation. Insecticidal rate (%)=(number of dead insects/number of test insects)×100 Control rate={1−(Nt)/(Nc)}×100
0.8 g of commercially available artificial diet (Insector LFS, manufactured by Nosan Corp.) and Emulsion (I) 1 μl were well mixed and 0.2 g per each treatment group was packed in a plastic test container (1.4 ml) to prepare test feed. Two Mythimna separata second instar larvae were inoculated into each treatment group and sealed with a plastic lid. The container was placed in a thermostatic chamber at 25° C., and the insecticidal rate and food intake were examined on the fifth day. The test was performed twice. Further, a test conducted under the same conditions except that the compound of the present invention was removed from the emulsion (I) was performed as a vehicle control group.

Aphis gossypii = assay: Test Example 11: efficacy test on Aphis gossypii (rooting treatment test); assay type: in vivo; settings: 8 ppm; hydroponic culture of cucumber seedlings (root treatment); 6 days
Procedure: as §1, §2
The cucumber seedlings raised in a small pot were drawn out from the small pot, the soil adhering to the root portion was washed off with tap water, and the root portion was dipped in tap water and hydroponically cultivated. Cucumber seedlings were inoculated with Aphis gossypii […]. Emulsion (I) was diluted with water to obtain a diluted solution having a concentration of the compound of the present invention of 8 ppm. The tap water was replaced with the diluent and the hydroponic culture with the diluent was continued in a thermostatic chamber at a temperature of 25° C. and a humidity of 60%. When 6 days passed from the start of hydroponic culture with the diluent, life and death determination on Aphis gossypii was performed and the insecticidal rate was calculated. The test was performed twice.

housefly = assay: Test Example 12: efficacy test on housefly; assay type: in vivo; settings: 100 ppm on cubic sugar; female adults; 25° C.; 24 hours
Procedure: as §2
The compound of the present invention was diluted with acetone and added dropwise to 1 g of cubic sugar such that the concentration was set to be 100 ppm. The cubic sugar was placed in a plastic cup, and ten housefly female adults were released and capped. After storage at 25° C. and 24 hours passing from releasing, life and death determination was performed and the insecticidal rate was calculated. The test was performed twice.

Plutella xylostella = assay: Test Example 13: efficacy test on Plutella xylostella (soil immersion test); assay type: in vivo; settings: 500 ppm, 10 ml soil irrigation of chingengsai seedlings; adults released after 7 days; counted 7 days after release
Procedure: as §1, §2
Nt: Number of parasites in spray treatment group
Nc: Number of parasites in untreated group
Emulsion (I) was diluted with water such that the concentration of the compound of the present invention was set to be 500 ppm to obtain a test solution. 10 ml of the test solution was irrigated to the stocker at chingengsai seedlings (seventh true leaf development stage) planted in a small pot and placed in a greenhouse at 25° C. for 7 days. Chingengsai seedlings were transferred into glass greenhouse and 300 adults of Plutella xylostella per 50 chingengsai were released in glass greenhouse. When 7 days passed after release, the number of surviving Plutella xylostella infested in Chingengsai seedlings was counted and the control rate was calculated. The test was performed twice.

Ornithodoros moubata = assay: Test Example 16: feeding effect test on Ornithodoros moubata; assay type: in vivo; settings: 10 ppm in defibrin blood of sheep; tritonymphs; 14 days after blood sucking
Procedure: as §2
A DMSO solution of the compound of the present invention was mixed with the defibrin blood of sheep to obtain a mixed solution of 10 ppm. 2 ml of this mixed solution was placed in a container and capped with a parafilm membrane. In addition, 20 tritonymphs of Ornithodoros moubata were released and allowed to suck the blood through a parafilm membrane for about 30 minutes. The nymphs were transferred to a storage container and incubated in a thermostatic chamber at a temperature of 28° C. and a humidity of 80%, and the life and death and developmental stage were observed 14 days after blood sucking. The test was performed twice.

Rhipicephalus microplus = assay: Test Example 17: contact effect test on Rhipicephalus microplus; assay type: in vivo; settings: 100 ppm test solution; larvae; 24 hours after treatment
Procedure: as §2
A DMSO solution of the compound of the present invention was diluted with water to obtain a test solution at 100 ppm. This drug solution was dropped into a container containing 20 larvae of Rhipicephalus microplus and incubated in a thermostatic chamber at a temperature of 28° C. and a humidity of 80%. The larvae's life and death were determined 24 hours after the drug treatment. The test was performed twice.

Lucilia cuprina larvae = assay: Test Example 18: contact/feeding effect test on Lucilia cuprina larvae; assay type: in vivo; settings: 1000 ppm in horse meat, 48 hours
Procedure: as §2
A DMSO solution of the compound of the present invention was mixed with horse meat to obtain a mixture of 1000 ppm. 20 Lucilia cuprina larvae were introduced into the test tube with the mixture. The mixture was incubated in a thermostatic chamber at a temperature of 28° C. and a humidity of 80%, and the larvae's life and death were determined 48 hours after the start of the test. The test was performed twice.

Aedes aegypti larvae = assay: Test Example 19: contact/feeding effect test on Aedes aegypti larvae; assay type: in vivo; settings: final concentration 10 ppm; first instar larvae; 48 hours
Procedure: as §2
A DMSO solution of the compound of the present invention was diluted with water to obtain a diluted solution of 100 ppm. 10 Aedes aegypti first instar larvae were placed in each well of a 96-well microtiter plate together with breeding water, 1/10 of 100 ppm diluted solution were added and tested at a final concentration of 10 ppm. The mixture was incubated in a thermostatic chamber at a temperature of 28° C. and a humidity of 80%, and the larvae's life and death were determined for 48 hours after the drug treatment. The test was performed twice.

Row | Compound | feeding amount in comparison with the vehicle control group (Mythimna separata) | other results
1 | CCSc1cc(C(F)(F)F)ccc1-c1ncc(C(=O)N2CC(F)(F)C(F)(F)C2)n1C [15-3] | – | melting point: 155 to 156 °C
2 | CCS(=O)(=O)c1cc(C(F)(F)F)ccc1-c1ncc(/C=C/C(F)(F)F)n1C [1-10] | ≤ 10% | –
3 | CCS(=O)(=O)c1ccc(-n2cncn2)nc1-n1ncc(C=C(Cl)C(F)(F)F)c1C (mixture of isomers) [10-4] | ≤ 10% | –
4 | CCSc1cccnc1-n1ncc(C=C(Cl)C(F)(F)C(F)(F)F)c1C [10-6] | ≤ 10% | –
5 | CCS(=O)(=O)c1cccnc1-n1ncc(C=C(Cl)C(F)(F)C(F)(F)F)c1C [10-7] | ≤ 10% | –
6 | CCS(=O)(=O)c1cccnc1-n1ncc(C=C(Cl)C(F)(F)F)c1C (mixture of isomers) [10-3] | ≤ 10% | –
7 | CCS(=O)(=O)c1ccc(-n2ncnc2N)nc1-n1ncc(C=C(Cl)C(F)(F)C(F)(F)F)c1C [10-11] | ≤ 10% | –
8 | CCS(=O)(=O)c1cc(C(F)(F)F)ccc1-c1ncc(C=C(Cl)C(F)(F)F)n1C [1-1, 5-(2-Chloro-3,3,3-trifluoroprop-1-en-1-yl)-2-(2-(ethylsulfonyl)-4-(trifluoromethyl)phenyl)-1-methyl-1H-imidazole] | – | insecticidal rate (Aphis gossypii): ≥ 80%; insecticidal rate (housefly): ≥ 80%; control rate (Plutella xylostella): ≥ 80%; insecticidal rate (Ornithodoros moubata): ≥ 90%; insecticidal rate (Rhipicephalus microplus): ≥ 90%; insecticidal rate (Lucilia cuprina larvae): ≥ 90%; insecticidal rate (Aedes aegypti larvae): ≥ 90%
9 | CCS(=O)(=O)c1cc(C(F)(F)F)cnc1-n1ncc(C=C(Cl)C(F)(F)F)c1C (mixture of isomers) [10-2] | ≤ 10% | –
10 | CCS(=O)(=O)c1ccc(-n2cncn2)nc1-n1ncc(C=C(Cl)C(F)(F)C(F)(F)F)c1C [10-5] | ≤ 10% | –
11 | CCS(=O)(=O)c1ccc(-n2cncn2)nc1-c1ncc(C=C(Cl)C(F)(F)C(F)(F)F)n1C [4-10] | ≤ 10% | –
12 | CCS(=O)(=O)c1cc(C(F)(F)F)ccc1-n1ncc(C(=O)On2nnc3ccccc32)c1C [15-2] | – | melting point: 211 to 215 °C
13 | CCS(=O)(=O)c1ccc(-n2cnc(N)n2)nc1-n1ncc(C=C(Cl)C(F)(F)C(F)(F)F)c1C [10-10] | ≤ 10% | –

Source: patent US11884633B2, “Arylazole compound and pest control agent” (Nippon Soda Co., Ltd., priority 2015, dated 2024)
